# From patent publication US9937180B2, “Constrained tricyclic sulfonamides” (ICAHN SCHOOL OF MEDICINE AT MOUNT SINAI, priority 2014, dated 2018)
# Where “and” joins values, the source holds several entries; their conditions need not be identical. Identical values can stand only once.
# Tests used:
# [1] = tested on: H1650; assay: H1650 Cell Viability Assays (GI50 Determination), MTT; assay type: cell-based; details: Homo sapiens, NCI-H1650, H1650 cells, 48 hours after drug treatment
# Method: H1650 Cell Viability Assays (GI50 Determination)
# Cell viability assays were performed according to Denizot, F. and R. Lang, Rapid colorimetric assay for cell growth and survival: Modifications to the tetrazolium dye procedure giving improved sensitivity and reliability Journal of Immunological Methods, 1986. 89[…]: p. 271-277.
# Cells were plated at 150,000 cells per well in a 12 well plate. Twenty-four hours after plating, cells were treated as described with increasing concentrations of drug and control. Forty-eight hours after drug treatment, cells were treated with 100 uL of 3-(4,5-Dimethylthiazol-2-yl)-2,5-diphenyltetrazolium bromide (MTT) and incubated for 2 hours at 37 C. The MTT solution was subsequently replaced with 300 uL of n-propyl alcohol and re-aliquoted to a 96 well plates. Spectrophotometric analysis of each solution was performed using a 96 well plate reader at 600 nm in triplicate.
# [2] = tested on: prostate cancer cell line LNCaP; assay: Mouse Tumor Assay: subcutaneous xenograft of prostate cancer cell line LNCaP; assay type: in vivo; details: LNCaP xenograft in male SCID nude castrated mice, 100 mg/kg BID oral gavage
# Method: (§1) Mouse Tumor Assay To assess the in vivo effects of the compounds, subcutaneous xenograft of prostate cancer cell line LNCaP was generated. Cells (5×10^6, 0.1 mL in 1:1 Matrigel:Media) were injected into the right flank of 8-week-old male SCID nude castrated mice (NCI). Tumor volume was assessed three times a week by caliper measurement. Mice were randomized to treatment groups based on initial tumor volume average of 247 mm^3 per group. Mice were dosed by oral gauvage with 100 mg/kg of Example 3a twice daily (BID) as a suspension in 0.1% Tween80/0.5% sodium carboxymethylcellulose (CMC) in water. […] Mouse body weights were recorded weekly and percentage of mice body weights during treatment was calculated as: weight at each time point/initial weight×100. […] Mice underwent treatment for 31 days and were sacrificed 2 hours after the last dose. Tumors were then excised and cut for both formalin-fixation and snap frozen in liquid nitrogen. No statistically significant toxicity was observed as judged from animal body weights of compound treated groups versus vehicle control group.
# [3] = Observation for signs of toxicity and body weights in the mouse tumor assay; assay type: in vivo; details: mice, 100 mg/kg BID oral, 31 days
# Method: as §1, with “To” for “Mouse Tumor Assay To”
# [4] = tested on: Molt4 cells; assay: MTS Cell Proliferation Assay (CellTiter96 AQueous); assay type: cell-based; details: Homo sapiens, MOLT-4, 48 hours, average of 3 biological replicates
# Method: MTS Cell Proliferation Assay GI50 for Example 3a and 3b for Molt4 cells was measured using the CellTiter96 AQueous Non-Radioactive Cell Proliferation Assay (Promega). Briefly, two technical replicates of 1×10^5 cells suspended in 50 μL RPMI-1640 media were pipetted per well into a 96-well plate for each condition. An equal volume of Example 3a or 3b was dissolved in media or vehicle control (DMSO) was added to each well for final concentration of 0, 5, 10, 15, 20, 30, 40, or 80 μM of 3a or 3b. Cells were allowed to grow for 48 hours at 37° C. with 5% CO2, after which 20 μL of MTS/PMS solution was added to each well and cells were incubated for an additional 4 hrs. At the end of the incubation period, A490 was read on a Biotek uQuant spectrophotometer to measure formazen production. Relative viability was calculated as A490 for each drug condition relative to vehicle alone.
Structure (SMILES),GI50 [1],further results
"O=S(=O)(N[C@H]1CCC[C@@H](N2c3ccccc3C=Cc3ccccc32)[C@@H]1O)c1ccc(OC(F)(F)F)cc1 (racemic) [Example 25, rac-N-((1S,2S,3R)-3-(5H-dibenzo[b,f]azepin-5-yl)-2-hydroxycyclohexyl)-4-(trifluoromethoxy)benzenesulfonamide]",10 µM,–
"O=S(=O)(N[C@@H]1CCCC(N2c3ccccc3CCc3ccccc32)[C@H]1O)c1ccc(OC(F)(F)F)cc1 (relative stereo) [Example 1, N-((1,2-trans)-3-(10,11-dihydro-5H-dibenzo[b,f]azepin-5-yl)-2-hydroxycyclohexyl)-4-(trifluoromethoxy)benzenesulfonamide]",5 µM,–
"O=S(=O)(N[C@H]1CCCC(N2c3ccccc3CCc3ccccc32)[C@@H]1O)c1ccc(OC(F)(F)F)cc1 (relative stereo) [Example 2, N-((1,2-trans)-3-(10,11-dihydro-5H-dibenzo[b,f]azepin-5-yl)-2-hydroxycyclohexyl)-4-(trifluoromethoxy)benzenesulfonamide]",15 µM,–
"O=S(=O)(N[C@@H]1CCCC(N2c3ccccc3CCc3ccccc32)[C@H]1O)c1ccc(Cl)cc1 (relative stereo) [Example 4, N-(3-(10,11-dihydro-5H-dibenzo[b,f]azepin-5-yl)-2-hydroxycyclohexyl)-4-(chloro)benzenesulfonamide]",10 µM,–
"O=S(=O)(N[C@@H]1CCC(N2c3ccccc3CCc3ccccc32)[C@H]1O)c1ccc(OC(F)(F)F)cc1 (relative stereo) [Example 17, N-((1S,2S,3R)-rel-3-(10,11-dihydro-5H-dibenzo[b,f]azepin-5-yl)-2-hydroxycyclopentyl)-4-(trifluoromethoxy)benzenesulfonamide]",15 µM,–
"O=S(=O)(N[C@@H]1CCC(N2c3ccccc3CCc3ccccc32)[C@H]1O)c1ccc(Cl)cc1 (relative stereo) [Example 18, 4-chloro-N-((1S,2S,3R)-rel-3-(10,11-dihydro-5H-dibenzo[b,f]azepin-5-yl)-2-hydroxycyclopentyl)benzenesulfonamide]",20 µM,–
"O=S(=O)(N[C@@H]1CCCC(N2c3ccccc3Sc3ccccc32)[C@H]1O)c1ccc(OC(F)(F)F)cc1 (relative stereo) [Example 20, N-((1R,2R,3S)-rel-2-hydroxy-3-(10H-phenothiazin-10-yl)cyclohexyl)-4-(trifluoromethoxy)benzenesulfonamide]",5 µM,–
"O=S(=O)(N[C@@H]1CCCC(N2c3ccccc3Sc3ccccc32)[C@H]1O)c1ccc(Cl)cc1 (relative stereo) [Example 21, 4-chloro-N-((1R,2R,3S)-rel-2-hydroxy-3-(10H-phenothiazin-10-yl)cyclohexyl)benzenesulfonamide]",10 µM,–
"[N-]=[N+]=Nc1ccc(S(=O)(=O)N[C@@H]2CCCC(N3c4ccccc4CCc4ccccc43)[C@H]2O)cc1 (stereo in doubt) [Example 5, N-(3-(10,11-dihydro-5H-dibenzo[b,f]azepin-5-yl)-2-hydroxycyclohexyl)-4-(azido)benzenesulfonamide]",15 µM,–
"O=S(=O)(N[C@H]1CCC[C@@H](N2c3ccccc3CCc3ccccc32)[C@@H]1O)c1ccc(OC(F)(F)F)cc1Cl (stereo in doubt) [Example 29, 2-chloro-N-(3-(10,11-dihydro-5H-dibenzo[b,f]azepin-5-yl)-2-hydroxycyclohexyl)-4-(trifluoromethoxy)benzenesulfonamide]",5 µM,–
"O=S(=O)(N[C@H]1CCC[C@@H](N2c3ccccc3CCc3ccccc32)[C@@H]1O)c1ccc(OC(F)F)cc1 (stereo in doubt) [Example 32, 4-(difluoromethoxy)-N-(3-(10,11-dihydro-5H-dibenzo[b,f]azepin-5-yl)-2-hydroxycyclohexyl)benzenesulfonamide]",10 µM,–
"O=S(=O)(N[C@H]1CCC[C@@H](N2c3ccccc3CCc3ccccc32)[C@@H]1O)c1ccc(OC(F)(F)F)c(Cl)c1 (stereo in doubt) [Example 33, 3-chloro-N-(3-(10,11-dihydro-5H-dibenzo[b,f]azepin-5-yl)-2-hydroxycyclohexyl)-4-(trifluoromethoxy)benzenesulfonamide]",5 µM,–
O=S(=O)(N[C@H]1CCC[C@@H](N2c3ccccc3CCc3ccccc32)[C@@H]1O)c1ccc(OC(F)(F)F)cc1 [Example 3a],5 µM,"Mean Tumor Volume(T) ([2]; 31 days): 485 mm³; % T/C ([2]; end of experiment (31 days), tumor versus vehicle control, 100 mg/kg): 35% and 34.6%; signs of toxicity (mucous diarrhea, abdominal stiffness and weight loss) [3]: no adverse signs were observed; GI50 [4]: 6 µM"
O=S(=O)(N[C@@H]1CCC[C@H](N2c3ccccc3CCc3ccccc32)[C@H]1O)c1ccc(OC(F)(F)F)cc1 [Example 3b],5 µM,GI50 [4]: 8 µM
"O=S(=O)(N[C@H]1CCC[C@@H](N2c3ccc(F)cc3CCc3cc(F)ccc32)[C@@H]1O)c1ccc(OC(F)(F)F)cc1 [Example 22, N-((1S,2S,3R)-3-(2,8-difluoro-10,11-dihydro-5H-dibenzo[b,f]azepin-5-yl)-2-hydroxycyclohexyl)-4-(trifluoromethoxy)benzenesulfonamide]",7 µM,–
"COc1ccc(S(=O)(=O)N[C@H]2CCC[C@@H](N3c4ccccc4CCc4ccccc43)[C@@H]2O)cc1 [Example 23, N-((1S,2S,3R)-3-(10,11-dihydro-5H-dibenzo[b,f]azepin-5-yl)-2-hydroxycyclohexyl)-4-methoxybenzenesulfonamide]",20 µM,–
"O=S(=O)(N[C@H]1CCC[C@@H](N2c3ccccc3CCc3cc(F)ccc32)[C@@H]1O)c1ccc(OC(F)(F)F)cc1 [Example 24, N-((1S,2S,3R)-3-(2-fluoro-10,11-dihydro-5H-dibenzo[b,f]azepin-5-yl)-2-hydroxycyclohexyl)-4-(trifluoromethoxy)benzenesulfonamide]",5 µM,–
"CC(=O)c1ccc(S(=O)(=O)N[C@H]2CCC[C@@H](N3c4ccccc4CCc4ccccc43)[C@@H]2O)cc1 [Example 26, 4-Acetyl-N-((1S,2S,3R)-3-(10,11-dihydro-5H-dibenzo[b,f]azepin-5-yl)-2-hydroxycyclohexyl)benzenesulfonamide]",20 µM,–
"CC(C)(O)c1ccc(S(=O)(=O)N[C@H]2CCC[C@@H](N3c4ccccc4CCc4ccccc43)[C@@H]2O)cc1 [Example 27, N-((1S,2S,3R)-3-(10,11-dihydro-5H-dibenzo[b,f]azepin-5-yl)-2-hydroxycyclohexyl)-4-(2-hydroxypropan-2-yl)benzenesulfonamide]",15 µM,–
"O=S(=O)(N[C@H]1CCC[C@@H](N2c3ccccc3CCc3ccccc32)[C@@H]1O)c1ccc(SC(F)(F)F)cc1 [Example 28, N-(3-(10,11-dihydro-5H-dibenzo[b,f]azepin-5-yl)-2-hydroxycyclohexyl)-4-((trifluoromethyl)thio)benzenesulfonamide]",5 µM,–
"O=S(=O)(N[C@H]1CCC[C@@H](N2c3ccccc3CCc3ccccc32)[C@@H]1O)c1ccc(CC(F)(F)F)cc1 [Example 30, N-(3-(10,11-dihydro-5H-dibenzo[b,f]azepin-5-yl)-2-hydroxycyclohexyl)-4-(2,2,2-trifluoroethyl)benzenesulfonamide]",5 µM,–
"O=S(=O)(N[C@H]1CCC[C@@H](N2c3ccccc3CCc3ccccc32)[C@@H]1O)c1ccc(C(F)(F)C(F)(F)F)cc1 [Example 31, N-(3-(10,11-dihydro-5H-dibenzo[b,f]azepin-5-yl)-2-hydroxycyclohexyl)-4-(perfluoroethyl)benzenesulfonamide]",5 µM,–
